Patent US20100222344A1, “4-ANILINO-SUBSTITUTED QUINAZOLINE DERIVATIVES AS TYROSINE KINASE INHIBITORS” (AstraZeneca AB, priority 2005, published 2010)

Columns and labels:
erbB2 tyrosine kinase = target: T1, erbB2 tyrosine kinase (Homo sapiens, UniProt P04626); test: Test (a) protein tyrosine kinase phosphorylation assay, erbB2; format: biochemical; details: read-out: IC50 Test (a): Inhibition of erbB2 tyrosine kinase protein phosphorylation
T1 construct: Recombinant intracellular fragments of EGFR, erbB2 and erbB4; made in house; host or cells: baculovirus/Sf21 insect cells (cleared lysate used)
T1 sequence (P04626 676-1255 limits assumed): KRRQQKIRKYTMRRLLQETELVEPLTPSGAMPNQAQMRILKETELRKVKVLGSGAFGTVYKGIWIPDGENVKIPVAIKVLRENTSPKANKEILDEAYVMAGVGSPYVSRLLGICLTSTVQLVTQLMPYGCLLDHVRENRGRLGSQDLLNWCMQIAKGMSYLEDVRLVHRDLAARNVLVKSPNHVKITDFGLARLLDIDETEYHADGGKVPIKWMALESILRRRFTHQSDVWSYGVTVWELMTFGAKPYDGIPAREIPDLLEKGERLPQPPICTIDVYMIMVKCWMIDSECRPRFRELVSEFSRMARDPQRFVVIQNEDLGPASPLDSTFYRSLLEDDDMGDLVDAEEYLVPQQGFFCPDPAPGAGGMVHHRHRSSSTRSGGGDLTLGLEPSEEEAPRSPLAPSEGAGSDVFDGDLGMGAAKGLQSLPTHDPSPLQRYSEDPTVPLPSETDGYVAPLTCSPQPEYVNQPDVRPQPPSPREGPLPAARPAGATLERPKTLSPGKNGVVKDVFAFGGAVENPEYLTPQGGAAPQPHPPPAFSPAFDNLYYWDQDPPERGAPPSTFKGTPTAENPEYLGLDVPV
Procedure: (§1) a) Protein Tyrosine Kinase phosphorylation Assays
(§2) This test measures the ability of a test compound to inhibit the phosphorylation of a tyrosine containing polypeptide substrate by EGFR, erbB2 and erbB4 tyrosine kinase enzyme.
(§3) Recombinant intracellular fragments of EGFR, erbB2 and erbB4 (accession numbers X00588, X03363 and L07868 respectively) were cloned and expressed in the baculovinis/Sf21 system. […]
(§4) Constitutive kinase activity of these recombinant proteins was determined by their ability to phosphorylate a synthetic peptide (made up of a random co-polymer of Glutamic Acid, Alanine and Tyrosine in the ratio of 6:3:1). […]
(§5) The immobilised phospho-peptide product of the reaction was detected by immunological methods. […] After further washing, HRP activity in each well of the plate was measured colorimetrically using 22′-Azino-di-[3-ethylbenzthiazoline sulfonate (6)]diammonium salt crystals (ABTS™ from Roche) as a substrate.
(§6) Quantification of colour development and thus enzyme activity was achieved by the measurement of absorbance at 405 nm on a Molecular Devices ThermoMax microplate reader. Kinase inhibition for a given compound was expressed as an IC50 value. […] The range of phosphorylation was calculated from the positive (vehicle plus ATP) and negative (vehicle minus ATP) control values.

BT474C cells = test: Test (e) BT474C cell proliferation assay; format: cell-based; details: Homo sapiens, 96 h, four-day MTS assay, read-out: IC50 Test (e): Inhibition of proliferation of BT474C cells
Description: The BT-474 tumour cell line (human mammary carcinoma) was obtained from Dr Baselga (at Laboratorio Recerca Oncologica, Paseo Vall D'Hebron 119-129, Barcelona 08035, Spain). This cell line was subcloned and a certain population (hereinafter referred to as “BT474C”) was obtained.
e) BT474C Cell Proliferation Assay
BT474C cells are a sub-cloned population of in vivo competent cells, as discussed above.
The BT474C assay is a MTS (3-(4,5-dimethylthiazol-2-yl)-5-(3-carboxymethoxyphenyl)-2-(4-sulfophenyl)-2H-tetrazolium, inner salt—Promega G1111) endpoint-based cell proliferation assay, which measures the ability of a test compound to inhibit the proliferation of cells over a four-day period. […] Cell density is measured using a haemocytometer and viability is calculated using Trypan Blue solution before being further diluted in Assay Medium and seeded at a density of 1×10^4 cells per well (in 100 μl) into clear bottomed 96 well plates (Costar 3598). […] The plate is read at 490 nm on a spectrophotometer.
Assay plates are left at 37° C. for 4 days and then treated with MTS solution (as above), which is converted to a soluble formazan product by active cells. After incubating the plates for 2 hours the reaction is stopped by the addition of 10% SDS (Sodium dodecyl sulphate) and the plates are read at 490 nm on a spectrophotometer giving absorbance values relative to the concentration of converted dye. […]

EGFR tyrosine kinase = target: T2, EGFR tyrosine kinase (Homo sapiens, UniProt P00533); test: Test (a) protein tyrosine kinase phosphorylation assay, EGFR; format: biochemical; details: read-out: IC50 Test (a): Inhibition of EGFR tyrosine kinase protein phosphorylation
T2 construct: Recombinant intracellular fragments of EGFR, erbB2 and erbB4; made in house; host or cells: baculovirus/Sf21 insect cells (cleared lysate used)
T2 sequence (P00533 669-1210 limits assumed): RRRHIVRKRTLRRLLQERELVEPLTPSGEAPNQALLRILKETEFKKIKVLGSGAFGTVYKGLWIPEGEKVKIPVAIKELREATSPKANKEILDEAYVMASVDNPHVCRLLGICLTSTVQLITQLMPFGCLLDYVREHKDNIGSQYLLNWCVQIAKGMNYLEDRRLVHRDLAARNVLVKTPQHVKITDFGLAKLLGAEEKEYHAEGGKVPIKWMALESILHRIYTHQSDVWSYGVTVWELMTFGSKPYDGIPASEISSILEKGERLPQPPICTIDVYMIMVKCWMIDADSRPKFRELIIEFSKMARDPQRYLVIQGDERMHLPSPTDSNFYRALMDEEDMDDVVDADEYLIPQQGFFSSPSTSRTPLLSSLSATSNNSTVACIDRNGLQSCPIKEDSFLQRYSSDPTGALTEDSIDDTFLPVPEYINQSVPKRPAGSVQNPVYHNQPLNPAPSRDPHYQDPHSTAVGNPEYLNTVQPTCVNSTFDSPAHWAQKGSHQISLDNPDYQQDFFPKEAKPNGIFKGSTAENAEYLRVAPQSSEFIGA
Procedure: as §1, §2, §3, §4, §5, §6

| IC50 (erbB2 tyrosine kinase) [nM] | IC50 (BT474C cells) [nM] | IC50 (EGFR tyrosine kinase) [nM] | SMILES |
| --- | --- | --- | --- |
| 8 | 337 | 362 | C[C@@H](Oc1cccc2ncnc(Nc3ccc(OCC4CCCO4)c(Cl)c3)c12)C(=O)N1CCOCC1 (stereo partly drawn) [Example 2, N-[3-chloro-4-(tetrahydrofuran-2-ylmethoxy)phenyl]-5-[(1R)-1-methyl-2-morpholin-4-yl-2-oxoethoxy]quinazolin-4-amine] |
| 3 | 418 | 169 | CSCCCOc1ccc(Nc2ncnc3cccc(O[C@H](C)C(=O)N4CCOCC4)c23)cc1Cl [Example 3, N-{3-chloro-4-[3-(methylthio)propoxy]phenyl}-5-[(1R)-1-methyl-2-morpholin-4-yl-2-oxoethoxy]quinazolin-4-amine] |
